# Values of other authors, collected in patent US20140141044A1, “Cord Colitis Syndrome Pathogen” (Dana-Farber Cancer Institute, Inc., priority 2012, published 2014).
# Test system: B. enterica
# Conditions: direct or inferred from related organisms
smiles,measurement,value
Cc1ncc([N+](=O)[O-])n1CCO [metronidazole],sensitivity of B. enterica,direct or inferred sensitivity
